Measured values taken from US7393846B2, “Heterocyclic compounds useful for the treatment of inflammatory and allergic disorders” (Glenmark Pharmaceuticals, S.A., priority 2003, dated 2008).

What was measured:
[1] = biological target: PDE4 enzyme; test: Inhibition of Phosphodiesterase Enzymes (PDE4), [3H]cAMP hydrolysis assay; assay type: biochemical; conditions: for IC50: PDE4 inhibition, 1 μM cAMP, 34° C., 20 minutes
Protocol: Inhibition of Phosphodiesterase Enzymes (PDE4)
In this assay, PDE4 enzyme converts [^3H] cAMP to the corresponding [^3H] 5′-AMP in proportion to the amount of PDE4 present. The [^3H] 5′-AMP then was quantitatively converted to free [^3H] adenosine and phosphate by the action of snake venom 5′-nucleotidase.
The assay was performed with modification of the method of Thompson and Appleman (Biochemistry; 1971; 10; 311-316) and Schwartz and Passoneau (Proc. Natl. Acad. Sci. U.S.A. 1974; 71; 3844-3848), both references incorporated herein by reference in their entirety, at 34° C. In a 200 ul total reaction mixture, the reaction mixture contained 12.5 mM of Tris, 5 mM MgCl2, 1 μM cAMP (cold) and ^3H cAMP (0.1 uCi), (Amersham). […] Drug samples were then added in the reaction mixture (25 μt/tube). The assay was initiated by addition of enzyme mix (75 μl) and the mixture was incubated for 20 minutes at 34° C. The reaction was stopped by boiling the tubes for 2 mins at 100° C. in a water bath. After cooling on ice for 5 minutes and addition of 50 ug/reaction of 5′-nucleotidase snake venom from Crotalus atrox incubation was carried out again for 20 min. at 34° C. The unreacted substrate was separated from (^3H) Adenosine by addition of Dowex AG 1-X8 (Biorad Lab), (400 ul) which was prequilibrated (1:1:1) in water and ethanol. Reaction mixture was then thoroughly mixed, placed on ice for 15 minutes, vortexed and centrifuged at 14,000 r.p.m. for 2 mins. After centrifugation, a sample of the supernatant was taken and added in 24 well optiplates containing Scintillant (1 ml) and mixed well. The samples in the plates were then determined for radioactivity in a Top Counter and the PDE4 activity was estimated. PDE4 enzyme was present in quantities that yield <30% total hydrolysis of substrate (linear assay conditions).
Results were expressed as percent inhibition (IC50) in nM concentrations. The IC50 values were determined from the concentration curves by nonlinear regression analysis.

[2] = system: PDE4; test: EC50 of the PDE4 results table (method not given)

IC50 [1] [nM]	EC50 [2] [nM]	melting point [°C]	percent inhibition ([1]; PDE4 inhibition at 1 uM) [% at 1 uM]	SMILES
3.47	19.1	272		COc1ccc(C(=O)Nc2c(Cl)cncc2Cl)c2c1oc1ccc(NC(=O)OCC3CC3)cc12 [Example 18, N-(3,5-dichloropyrid-4-yl)-4-methoxy-8-cyclopropylmethoxycarboxamido-dibenzo[b,d]furan-1-carboxamide]
10.3	8.29	> 250		CCN(CC)C(=O)Nc1ccc2oc3c(OC)ccc(C(=O)Nc4c(Cl)cncc4Cl)c3c2c1 [Example 20, N-(3,5-dichloropyrid-4-yl)-4-methoxy-8-N,N-diethylaminocarboxamido-dibenzo[b,d]furan-1-carboxamide]
9.93	147	> 250		CCOC(=O)CNC(=O)Nc1ccc2oc3c(OC)ccc(C(=O)Nc4c(Cl)cncc4Cl)c3c2c1 [Example 50, N-(3,5-dichloropyrid-4-yl)-4-methoxy-8-(2-ethoxy-2-oxo-ethylaminocarbonylamino)-dibenzo[b,d]furan-1-carboxamide]
1.72	3.93	260		CCNC(=S)Nc1ccc2oc3c(OC)ccc(C(=O)Nc4c(Cl)cncc4Cl)c3c2c1 [Example 44, N-(3,5-dichloropyrid-4-yl)-4-methoxy-8-(ethylaminothiocarboxamido)-dibenzo[b,d]furan-1-carboxamide]
7.01	14.1	> 300		COc1ccc(C(=O)Nc2c(Cl)cncc2Cl)c2c1oc1ccc(NC(=O)C(F)(F)F)cc12 [Example 14, N-(3,5-dichloropyrid-4-yl)-4-methoxy-8-trifluoroacetamido-dibenzo[b,d]furan-1-carboxamide]
1.18	13.6	252		COc1ccc(C(=O)Nc2c(Cl)cncc2Cl)c2c1oc1ccc(NC(C)=O)cc12 [Example 04, N-(3,5-dichloropyrid-4-yl)-4-methoxy-8-acetamido-dibenzo[b,d]furan-1-carboxamide]
959		285		COc1ccc(NC(=O)c2ccc(OC)c3oc4ccc(NC(C)=O)cc4c23)cc1 [Example 42, N1-(4-methoxyphenyl)-4-methoxy-8-acetamido-dibenzo[b,d]furan-1-carboxamide]
156		252		COc1ccc(C(=O)Nc2ccccc2)c2c1oc1ccc(NC(C)=O)cc12 [Example 41, N1-phenyl-4-methoxy-8-acetamido-dibenzo[b,d]furan-1-carboxamide]
15.1		274		CCOC(=O)Nc1ccc2oc3c(OC)ccc(C(=O)Nc4c(Cl)cncc4Cl)c3c2c1 [Example 15, N-(3,5-dichloropyrid-4-yl)-4-methoxy-8-ethoxycarboxamido-dibenzo[b,d]furan-1-carboxamide]
3.55	14.8	234		CC(=O)Nc1ccc2oc3c(OC(F)F)ccc(C(=O)Nc4c(Cl)cncc4Cl)c3c2c1 [Example 34, N-(3,5-dichloropyrid-4-yl)-4-difluoromethoxy-8-acetamido-dibenzo[b,d]furan-1-carboxamide]
		264 to 265	17.93	COc1ccc(C(=O)NCc2ccccc2)c2c1oc1ccc(NC(C)=O)cc12 [Example 43, N1-benzyl-4-methoxy-8-acetamido-dibenzo[b,d]furan-1-carboxamide]
134		> 250		COc1ccc(C(=O)Nc2cccnc2)c2c1oc1ccc(NC(C)=O)cc12 [Example 46, N1-(pyrid-3-yl)-4-methoxy-8-acetamido-dibenzo[b,d]furan-1-carboxamide]
